Experimental data taken from article PMC12669040, “Tumour-specific STING agonist synthesis via a two-component prodrug system” (Nature Chemistry, 2025).
Where “and” joins values, the source holds several entries; their conditions need not be identical. Identical values can stand only once. Like-named read-outs stand apart in the source and are kept apart here.

Experiments:
[1] = molecular target: T1, wild-type human STING LBD (hSTINGwt 138-379) (Homo sapiens, UniProt Q86WV6, H232R); assay: Isothermal titration calorimetry (ITC), reverse titration; assay type: binding
T1 construct: SUMO (N, cleaved yes); made in house; host or cells: Escherichia coli BL21 (DE3)
Description: Escherichia coli BL21 (DE3) (Thermo Scientific EC0114) was transformed with a pET28a plasmid (Genscript) harbouring the codon-optimized sequence of SUMO-hSTINGwt (aa138-379). Transformed BL21 cells were inoculated into LB medium (50 µg ml^−1 kanamycin) and incubated at 180 rpm, 37 °C overnight. The overnight culture was then diluted (1:100 dilution) in 2× YT medium (50 µg ml^−1 kanamycin) and incubated at 180 rpm, 37 °C until optical density at 600 nm (OD600) reached 0.6 (approximately 3 h). The bacterial culture was then cooled to 16 °C, induced with 0.5 mM isopropyl 1-thio-D-galactopyranoside and incubated overnight at 180 rpm, 16 °C. The bacterial cells were pelleted at 4,000g for 30 min, resuspended in 20 ml of lysis buffer (25 mM HEPES pH 7.5, 150 mM NaCl, 20 mM imidazole and 2 mM TCEP supplied with 2 tablets of cOmplete mini EDTA-free protease inhibitors) and disrupted by sonication on ice. The total lysate was clarified by centrifugation at 22,000g for 30 min. The supernatant was collected and filtered through a 0.45-µm filter (Millipore SLHAR33SS). The clarified lysate was then incubated on a roller with 10 ml bed volume of Ni-NTA resin (Thermo Scientific 88223) at 4 °C for 1 h. The Ni-NTA resin was then packed in a column, flushed with 20 ml of wash buffer (25 mM HEPES pH 7.5, 150 mM NaCl and 20 mM imidazole) and eluted with 40 ml of elution buffer (25 mM HEPES pH 8.0, 150 mM NaCl and 250 mM imidazole). The eluted protein was concentrated to approximately 5 ml (Millipore Amicon 10 kDa molecular weight cut-off (MWCO)) and buffer-exchanged into storage buffer (25 mM HEPES pH 7.5 and 150 mM NaCl). TCEP was then added to a final concentration of 2 mM, and 250 units of SUMO protease (Merck SAE0067) were added. The cleavage reaction mixture was left to stand at 4 °C overnight until LC–MS analysis indicated the completion of the cleavage reaction. The cleavage mixture was incubated with 10 ml bed volume of Ni-NTA resin on a roller at 4 °C for 1 h and packed in a disposable column. The flowthrough was collected, and the resin was further flushed with 20 ml of wash buffer. The eluted fractions were combined, concentrated and further purified by size-exclusion chromatography (Cytiva, Superdex 200 Increase 10/300 GL). The purified protein in storage buffer was concentrated to 330 µM (dimer concentration) as determined by bicinchoninic acid (BCA) assay, aliquoted, flash-frozen in liquid nitrogen and stored at −80 °C for future use.
The binding constants of purified dimers were measured by ITC (Malvern Panalytical AutoITC200) in a reverse-titration format. Stock DMSO solutions of each dimer were dissolved in titration buffer (25 mM HEPES pH 7.5 and 150 mM NaCl) to a final concentration of 25 µM and added to the titration cell. The syringe was filled with 250 µM of purified STING in a matching buffer. Titration was performed at 25 °C with the following parameters: 750 rpm stirring, 0.2 µl initial injection followed by 2-µl injections of the […] every 120 s. Titration of STING protein into blank buffer was separately performed and subtracted from the raw data before the analysis. The background-subtracted titration curves were fitted with the built-in Origin software using the standard one-site model.
Extended Data Fig. 2 Isothermal titration calorimetry (ITC) data for binding constant measurements. Purified hSTINGwt138-379 (250 μM of homodimer) was titrated into each dimer (25 μM) dissolved in a matching buffer (25 mM HEPES pH 7.5, 150 mM NaCl) at 25 °C and 750 rpm stirring. Binding constants were reported as the average from duplicate measurements.

[2] = test system: THP-1 Lucia ISG cells (interferon pathway); assay: Potency test of purified dimers on THP-1 Lucia ISG reporter cells; assay type: cell-based, human; conditions: for Raw readings: replicates 1-3; for fold induction at 0.000508053 µM / fold induction at 0.00152416 µM / fold induction at 0.00457247 µM / fold induction at 0.0137174 µM / fold induction at 0.0411523 µM / fold induction at 0.123457 µM / fold induction at 0.37037 µM / fold induction at 1.11111 µM / fold induction at 3.33333 µM / fold induction at 10 µM / EC50: Homo sapiens, THP1-Lucia ISG, 24 h; for fold induction at 0.000508053 µM: Concentration 0.508053 nM; for fold induction at 0.000508053 µM / fold induction at 0.00152416 µM / fold induction at 0.00457247 µM / fold induction at 0.0137174 µM / fold induction at 0.0411523 µM / fold induction at 0.123457 µM / fold induction at 0.37037 µM / fold induction at 1.11111 µM / fold induction at 3.33333 µM / fold induction at 10 µM: three replicates, read-out: Processed reporter response per replicate (reading relative to DMSO); for fold induction at 0.00152416 µM: Concentration 1.52416 nM; for fold induction at 0.00457247 µM: Concentration 4.57247 nM; for fold induction at 0.0137174 µM: Concentration 13.7174 nM; for fold induction at 0.0411523 µM: Concentration 41.1523 nM; for fold induction at 0.123457 µM: Concentration 123.457 nM; for fold induction at 0.37037 µM: Concentration 370.37 nM; for fold induction at 1.11111 µM: Concentration 1111.11 nM; for fold induction at 3.33333 µM: Concentration 3333.33 nM; for fold induction at 10 µM: Concentration 10000 nM; for EC50: three biological replicates, mean ± s.d., read-out: EC50 THP-1
Description: Cells were pelleted (150g, 10 min) and resuspended in the growth medium (40% conditioned) at a density of 1 × 10^6 cells ml^−1. The cell suspension was dispensed (50 µl each well) into a lidded white 96-well plate (BrandTech 781665). Test compounds or DMSO control were diluted in the growth medium and sterilized by filtering through 0.22-µm polyethersulfone (PES) membranes (Merck SLGP033RS). […] Upon cooling down to room temperature, 50 µl of reconstituted luciferase substrate (InvivoGen QUANTI-Luc) was added to each well via the injector of the plate reader (Molecular Devices SpectraMax i3x), and the luminescence output was recorded (4 s delay, 0.1 s integration). Raw signals were divided by the averaged signal of the DMSO-treated control wells and reported in relative luminescence unit (RLU). The dose–response curve of each replicate was fitted individually using the standard 4PL model (GraphPad Prism). The EC50 value of each compound was averaged from three independent experiments and reported as mean ± s.e.m.

[3] = 25 °C, average of duplicate measurements, read-out: Kd hSTINGwt (binding constant, ITC)

T1 sequence (Q86WV6 138-379 H232R): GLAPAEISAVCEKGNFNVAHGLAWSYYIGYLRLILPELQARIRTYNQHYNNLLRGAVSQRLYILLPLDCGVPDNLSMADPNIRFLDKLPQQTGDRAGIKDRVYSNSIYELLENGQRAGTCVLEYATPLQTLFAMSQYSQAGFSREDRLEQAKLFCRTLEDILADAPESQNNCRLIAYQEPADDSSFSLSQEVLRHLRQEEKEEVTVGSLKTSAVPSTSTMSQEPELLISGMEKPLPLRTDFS

| SMILES | Kd [1, 3] [µM] | Kd ([1]; ITC run _01, read-out: Kd) [µM] | Raw readings ([2]; Conc 0.508053 nM) | Raw readings ([2]; Conc 1.52416 nM) | Raw readings ([2]; Conc 4.57247 nM) | Raw readings ([2]; Conc 13.7174 nM) | Raw readings ([2]; Conc 41.1523 nM) | Raw readings ([2]; Conc 123.457 nM) | Raw readings ([2]; Conc 370.37 nM) | Raw readings ([2]; Conc 1111.11 nM) | Raw readings ([2]; Conc 3333.33 nM) | Raw readings ([2]; Conc 10000 nM) | fold induction at 0.000508053 µM [2] | fold induction at 0.00152416 µM [2] | fold induction at 0.00457247 µM [2] | fold induction at 0.123457 µM [2] | fold induction at 0.37037 µM [2] | fold induction at 1.11111 µM [2] | fold induction at 10 µM [2] | EC50 [2] [µM] | also measured |
| --- | --- | --- | --- | --- | --- | --- | --- | --- | --- | --- | --- | --- | --- | --- | --- | --- | --- | --- | --- | --- | --- |
| COc1cc2sc(C(=O)CCC(=O)O)cc2cc1Sc1cc2cc(C(=O)CCC(=O)O)sc2cc1OC [Compound D1] | 0.065 | 0.08 | 1353 RLU and 1053 RLU and 1124 RLU | 759 RLU and 868 RLU and 713 RLU | 1002 RLU and 721 RLU and 729 RLU | 1412 RLU and 851 RLU and 1233 RLU | 3959 RLU and 4405 RLU and 4421 RLU | 44787 RLU and 77696 RLU and 48848 RLU | 107911 RLU and 161465 RLU and 94323 RLU | 125522 RLU and 220455 RLU and 140381 RLU | 142408 RLU and 266422 RLU and 170286 RLU | 176790 RLU and 287573 RLU and 159056 RLU | 1.85 | 1.04 | 1.37 | 61.3 | 148 | 172 | 242 | 0.291 ± 0.022 | Kd ([1]; ITC run _02, read-out: Kd): 0.05 µM; fold induction at 0.0137174 µM [2]: 1.93; fold induction at 0.0411523 µM [2]: 5.41; fold induction at 3.33333 µM [2]: 195 |
| COc1cc2sc(C(=O)CCC(=O)O)cc2cc1CSc1cc2cc(C(=O)CCC(=O)O)sc2cc1OC [Compound D2] | 0.046 | 0.079 | 658 RLU and 1263 RLU and 1053 RLU | 564 RLU and 729 RLU and 601 RLU | 1074 RLU and 921 RLU and 1413 RLU | 6767 RLU and 16752 RLU and 12692 RLU | 51165 RLU and 121226 RLU and 61063 RLU | 102439 RLU and 196826 RLU and 100000 RLU | 111711 RLU and 237713 RLU and 134702 RLU | 126733 RLU and 297637 RLU and 176097 RLU | 139803 RLU and 327985 RLU and 173658 RLU | 138886 RLU and 307582 RLU and 153848 RLU | 0.9 | 0.771 | 1.47 |  | 153 | 173 |  | 0.074 ± 0.012 | Kd ([1]; ITC run _02, read-out: Kd): 0.013 µM; fold induction at 3.33333 µM [2]: 191 |
| COc1cc2sc(C(=O)CCC(=O)O)cc2cc1CCCSc1cc2cc(C(=O)CCC(=O)O)sc2cc1OC [Compound D4] |  |  | 972 RLU and 1002 RLU and 881 RLU | 820 RLU and 522 RLU and 439 RLU | 921 RLU and 829 RLU and 583 RLU | 721 RLU and 644 RLU and 533 RLU | 942 RLU and 783 RLU and 992 RLU | 1083 RLU and 911 RLU and 1043 RLU | 775 RLU and 737 RLU and 829 RLU | 962 RLU and 1173 RLU and 1233 RLU | 1143 RLU and 434 RLU and 1233 RLU | 8812 RLU and 7169 RLU and 7929 RLU | 1.37 | 0.714 | 1.13 | 1.25 | 1.01 | 1.6 | 9.81 | > 10 | fold induction at 0.0137174 µM [2]: 0.881; fold induction at 0.0411523 µM [2]: 1.07 |
| COc1cc2sc(C(=O)CCC(=O)O)cc2cc1SCSc1cc2cc(C(=O)CCC(=O)O)sc2cc1OC [Compound D5] | 0.032 | 0.033 | 1203 RLU and 820 RLU and 682 RLU | 644 RLU and 783 RLU and 699 RLU | 790 RLU and 1094 RLU and 558 RLU | 2256 RLU and 4162 RLU and 2105 RLU | 27829 RLU and 66900 RLU and 34361 RLU | 93770 RLU and 170286 RLU and 89246 RLU | 121713 RLU and 224782 RLU and 129344 RLU | 143643 RLU and 288417 RLU and 167064 RLU | 169624 RLU and 310357 RLU and 172333 RLU | 161133 RLU and 278063 RLU and 147917 RLU |  | 0.881 |  | 128 | 166 | 196 | 220 | 0.112 ± 0.006 | Kd ([1]; ITC run _02, read-out: Kd): 0.031 µM; fold induction at 3.33333 µM [2]: 232 |
| COc1cc2sc(C(=O)CCC(=O)O)cc2cc1SCCCSc1cc2cc(C(=O)CCC(=O)O)sc2cc1OC [Compound D6] |  |  | 775 RLU and 627 RLU and 744 RLU | 1043 RLU and 675 RLU and 1023 RLU | 1143 RLU and 972 RLU and 595 RLU | 992 RLU and 713 RLU and 1033 RLU | 501 RLU and 595 RLU and 1053 RLU | 890 RLU and 1002 RLU and 706 RLU | 1023 RLU and 470 RLU | 689 RLU and 699 RLU and 1023 RLU | 595 RLU and 992 RLU and 806 RLU | 722 RLU and 829 RLU and 644 RLU | 0.858 | 0.923 | 1.33 | 1.37 |  | 0.956 | 1.13 | > 10 | fold induction at 0.0137174 µM [2]: 0.975 |
